{"source": "patent US20070161644A1", "about": "“Erastin analogs and uses thereof” (priority 2005, published 2007)", "assay_in_all_cases": "Calcein AM viability assay, dilution series", "assay_type_in_all_cases": "cell-based, human", "conditions_in_all_cases": "50% inhibition of calcein AM staining; 16-point two-fold dilution; two days", "key": {"BJ primary cells": {"test_system": "BJ primary cells", "from_the_text": "(§1) Described here is work carried out to identify compounds with increased potency or activity in the presence of hTERT, LT, ST, E6, E7 or RAS^V12. Although the work described herein made use of hTERT, LT, ST, E6, E7 and RAS^V12 as transforming genes, future studies can make use of a wide variety of cancer-associated alleles using this methodology in order to define the signaling networks that involve many oncogenes and tumor suppressors. Engineered cell lines with these genetic elements were used to screen 23,550 compounds, including 20,000 compounds from a combinatorial library, 1,990 compounds from the National Cancer Institute diversity collection, and 1,540 biologically active known compounds that were selected and purchased by Applicant and formatted into a screenable collection. The primary screen tested (in quadruplicate) the effect of treating tumorigenic BJ-TERT/LT/ST/RAS^V12 engineered tumorigenic cells with each compound for 48 hours at a concentration of 4 μg/mL, corresponding to 10 μM for a compound with a molecular weight of 400, which is the approximate median molecular weight of the libraries. Cell viability was measured using the dye calcein acetoxymethyl ester (calcein AM) (Wang et al., 1993, Hum. Immunol. 37, 264-270), which is a non-fluorescent compound that freely diffuses into cells. In live cells, calcein AM is cleaved by intracellular esterases, forming the anionic fluorescent derivative calcein, which cannot diffuse out of live cells. […] The IC50 value (concentration required to inhibit 50% of the calcein AM signal) was calculated for each compound in each cell line (Table 1). […] Following is a more detailed analysis of these nine compounds.\n(§2) Calcein acetoxylmethyl ester (AM) is a cell membrane-permeable, non-fluorescent compound that is cleaved by intracellular esterases to form the anionic, cell-impermeable, fluorescent compound calcein. Viable cells are stained by calcein because of the presence of intracellular esterases and because the intact plasma membrane prevents fluorescent calcein from leaking out of cells (Wang et al., 1993, supra). Cells were seeded in 384-well plates using a Zymark Sciclone ALH, treated with each compound in triplicate at 4 μg/mL in the primary screen for two days, washed with phosphate-buffered saline on a Packard Minitrak with a 384-well washer and incubated for four hours with 0.7 μg/mL calcein (Molecular Probes). Total fluorescence intensity in each well was recorded on a Packard Fusion platereader, and converted to a percent inhibition of signal by subtracting the instrument background and dividing by the average signal obtained when cells were not treated with any compound.\n(§3) Compounds to be retested were purchased from manufacturers. Stocks were prepared in DMSO at a concentration of 1 mg/ml in 384-well polypropylene plates with a 16-point, two-fold dilution dose curve of each compound in a column, in duplicates. Column 1-2 and 23-24 were left empty for controls. Daughter retest plates were prepared from stock retest plate by diluting 66.6 fold in DMEM in 384-well deep-deep well plates (4.5 μl transfer into 300 μl). Cells were seeded at a density of 6000 per well in 40 μl, and 20 μl was added from a daughter retest plate. The plates were incubated for two days at 37° C. with 5% CO2.\n(§4) Mean RFU (relative fluorescence units) for untreated cells was calculated by averaging columns 1, 2, and 23 (wells with cells but lacking compounds). The calcein background was calculated by averaging column 24 (wells with calcein, but lacking cells). Percentage inhibition of each well was calculated as [1−(RFU−calcein control)/(untreated cell−calcein control)*100]. Compounds causing at least 50% inhibition of calcein staining in the primary screen were tested for selectivity towards BJ-TERT/LT/ST/RAS^V12 engineered tumor cells by testing in BJ primary and BJ-TERT/LT/ST/RAS^V12 cells at a range of concentrations. Selective compounds were retested in all engineered cell lines."}, "TIP5/TERT cells": {"test_system": "TIP5/TERT cells", "from_the_text": "as §1, §2, §3, §4"}, "BJ-TERT/LT/ST cells": {"test_system": "BJ-TERT/LT/ST cells", "from_the_text": "as §1, §2, §3, §4"}, "[1]": {"test_system": "TIP5/TERT/E6/E7/ST/RAS^V12 cells", "from_the_text": "as §1, §2, §3, §4"}, "TIP5/TERT/E6/E7/ST cells": {"test_system": "TIP5/TERT/E6/E7/ST cells", "from_the_text": "as §1, §2, §3, §4"}, "TIP5/TERT/LT cells": {"test_system": "TIP5/TERT/LT cells", "from_the_text": "as §1, §2, §3, §4"}, "[2]": {"test_system": "BJ-TERT/LT/RAS^V12/ST cells", "from_the_text": "as §1, §2, §3, §4"}, "[3]": {"test_system": "TIP5/TERT/LT/ST/RAS^V12 cells", "from_the_text": "as §1, §2, §3, §4"}, "TIP5/TERT/E6/E7 cells": {"test_system": "TIP5/TERT/E6/E7 cells", "from_the_text": "as §1, §2, §3, §4"}, "[4]": {"test_system": "BJ-TERT/LT/ST/RAS^V12 cells", "method": "Described here is work carried out to identify compounds with increased potency or activity in the presence of hTERT, LT, ST, E6, E7 or RAS^V12. Although the work described herein made use of hTERT, LT, ST, E6, E7 and RAS^V12 as transforming genes, future studies can make use of a wide variety of cancer-associated alleles using this methodology in order to define the signaling networks that involve many oncogenes and tumor suppressors. […] Cell viability was measured using the dye calcein acetoxymethyl ester (calcein AM) (Wang et al., 1993, Hum. Immunol. 37, 264-270), which is a non-fluorescent compound that freely diffuses into cells. […]\nCalcein acetoxylmethyl ester (AM) is a cell membrane-permeable, non-fluorescent compound that is cleaved by intracellular esterases to form the anionic, cell-impermeable, fluorescent compound calcein. […] Total fluorescence intensity in each well was recorded on a Packard Fusion platereader, and converted to a percent inhibition of signal by subtracting the instrument background and dividing by the average signal obtained when cells were not treated with any compound. […]\nMean RFU (relative fluorescence units) for untreated cells was calculated by averaging columns 1, 2, and 23 (wells with cells but lacking compounds). The calcein background was calculated by averaging column 24 (wells with calcein, but lacking cells). […]"}}, "data": [{"smiles": "Cc1c2ccccc2c(CSC(=N)N)c2ccccc12.Cl", "note": "[NSC146109]", "values": [{"measurement": "IC50 BJ", "setting": "BJ primary cells", "result": ">5", "unit": "µg/mL"}, {"measurement": "IC50 TIP5-TERT", "setting": "TIP5/TERT cells", "result": ">5", "unit": "µg/mL"}, {"measurement": "IC50 BJ-TERT/LT/ST", "setting": "BJ-TERT/LT/ST cells", "result": 2.5, "unit": "µg/mL"}, {"measurement": "IC50 TIP5-TERT/E6E7/ST/Ras^v12", "setting": "[1]", "result": 2.5, "unit": "µg/mL"}, {"measurement": "IC50 TIP5-TERT/E6E7/ST", "setting": "TIP5/TERT/E6/E7/ST cells", "result": 2.5, "unit": "µg/mL"}, {"measurement": "IC50 TIP5-TERT/LT", "setting": "TIP5/TERT/LT cells", "result": ">5", "unit": "µg/mL"}, {"measurement": "IC50 BJ-TERT/LT/Ras^v12/ST", "setting": "[2]", "result": 2.5, "unit": "µg/mL"}, {"measurement": "IC50 TIP5-TERT/LT/ST/Ras^v12", "setting": "[3]", "result": 2.5, "unit": "µg/mL"}, {"measurement": "IC50 TIP5-TERT/E6E7", "setting": "TIP5/TERT/E6/E7 cells", "result": 2.5, "unit": "µg/mL"}, {"measurement": "IC50 BJ-TERT/LT/ST/Ras^v12", "setting": "[4]", "result": 2.5, "unit": "µg/mL"}]}]}
